Results on seven compounds are retold here after PubChem BioAssay (NCI).

Several values for one entry are separate records, joined by “and”; a condition that tells them apart may be missing. Equal entries are not always repeated.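 Where inhibition never reached the appropriate level, the endpoint shown equals the highest concentration tested. Otherwise, values were interpolated linearly from a five-concentration, 48-hour dose response in 96-well plates. Abbreviation: GI50, concentration required for 50% inhibition of growth. TGI denotes the concentration required for complete inhibition of growth.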

Test systems include NCI-H23 lung; SF-539 CNS; HOP-62 NSCLC; NCI/ADR-RES ovarian; SNB-19 CNS; HT29 colon; OVCAR-8 ovarian; DU-145 prostate; OVCAR-3 ovarian; CCRF-CEM leukemia.
Common to all, as to test: inhibition of tumour cell growth, NCI panel, 48 h

Consider `CCn1ncc(N=O)c1N`, for which the TGI in the experiment on NCI-H23 lung, in the experiment with SF-539 CNS, with HOP-62 NSCLC, in the experiment on NCI/ADR-RES ovarian, with SNB-19 CNS and in the experiment on HT29 colon was above 100 µM throughout. Moreover, the TGI in the experiment on OVCAR-8 ovarian, in the experiment with DU-145 prostate, in the experiment on OVCAR-3 ovarian and with CCRF-CEM leukemia was above 100 µM in each case.

For `CCC(C)C1NC(=O)C(NC(=O)C(CC(C)C)N(C)C(=O)[C@@H]2CC(O)CN2C(=O)[C@H](C)O)C(C)OC(=O)[C@H](Cc2ccc(OC)cc2)N(C)C(=O)[C@@H]2CCCN2C(=O)[C@H](CC(C)C)NC(=O)C(C)C(=O)[C@H](C(C)C)OC(=O)CC1O` (stereo partly drawn), the TGI in the experiment with NCI-H23 lung was 0.172 µM; in the experiment on SF-539 CNS it was 0.211 µM and 0.335 µM; in the experiment on HOP-62 NSCLC it was 1.4 µM and 0.394 µM; with NCI/ADR-RES ovarian, above 100 µM; with SNB-19 CNS, 3.39 µM and 0.346 µM; with HT29 colon it was 2.23 µM and 1.09 µM. Further, the TGI in the experiment with OVCAR-8 ovarian is 4.38 µM and 2.62 µM; in the experiment with DU-145 prostate it was 3.35 µM and 1.85 µM; in the experiment on OVCAR-3 ovarian, 1.26 µM and 0.982 µM; in the experiment on CCRF-CEM leukemia it was 0.28 µM. In addition, the GI50 was 0.0104 µM in the experiment with SF-539 CNS; 0.028 µM in the experiment on HOP-62 NSCLC; below 0.01 µM in the experiment on SNB-19 CNS; 0.0169 µM with HT29 colon; 0.107 µM in the experiment with OVCAR-8 ovarian; 0.0884 µM in the experiment with DU-145 prostate. The GI50 was 0.0793 µM with OVCAR-3 ovarian and 0.0276 µM in the experiment on CCRF-CEM leukemia.

In the case of `O=C(Nc1cccc(-n2cc(-c3ccncc3)c(-c3ccc(Cl)c(O)c3)n2)c1)Nc1ccc(Cl)c(Cl)c1`, the GI50 was 1.22 µM in the experiment on NCI-H23 lung; 1.34 µM in the experiment with SF-539 CNS; 2.08 µM in the experiment with HOP-62 NSCLC; 2.74 µM in the experiment on NCI/ADR-RES ovarian; 1.46 µM in the experiment with SNB-19 CNS; 4.89 µM in the experiment with HT29 colon. In addition, the GI50 in the experiment with OVCAR-8 ovarian is 1.21 µM; in the experiment on DU-145 prostate it was 1.5 µM; with OVCAR-3 ovarian it was 1.05 µM; in the experiment on CCRF-CEM leukemia, 1.03 µM. Moreover, the TGI with NCI-H23 lung is 29.1 µM; with SF-539 CNS, 8.97 µM; in the experiment on HOP-62 NSCLC, 17.6 µM; in the experiment on NCI/ADR-RES ovarian it was above 32.5 µM; with SNB-19 CNS it was above 32.5 µM; with HT29 colon, above 32.5 µM. Besides, the TGI in the experiment with OVCAR-8 ovarian was above 32.5 µM; with DU-145 prostate, above 32.5 µM; in the experiment with OVCAR-3 ovarian it was 3.15 µM; with CCRF-CEM leukemia, above 32.5 µM.

Turning to `COc1cc(N2CCC(N)CC2)ccc1Nc1ncc(Cl)c(-c2c[nH]c3ccccc23)n1`, the GI50 in the experiment on NCI-H23 lung was 0.925 µM; with SF-539 CNS, 0.437 µM; in the experiment on HOP-62 NSCLC, 0.389 µM; with NCI/ADR-RES ovarian, 1.49 µM; with SNB-19 CNS it was 1.38 µM; in the experiment with HT29 colon, 0.0343 µM. Further, the GI50 with OVCAR-8 ovarian is 1.13 µM; in the experiment with DU-145 prostate it was 0.34 µM; in the experiment on OVCAR-3 ovarian, 1.14 µM; in the experiment on CCRF-CEM leukemia, 2.17 µM. For the same compound, the TGI was 3.06 µM in the experiment with NCI-H23 lung; 1.7 µM with SF-539 CNS; 1.99 µM in the experiment on HOP-62 NSCLC; 4.11 µM in the experiment with NCI/ADR-RES ovarian; 4.19 µM in the experiment on SNB-19 CNS; 1.43 µM in the experiment with HT29 colon. Also, the TGI stood at 2.44 µM in the experiment on OVCAR-8 ovarian, 1.88 µM in the experiment with DU-145 prostate, 3.71 µM in the experiment on OVCAR-3 ovarian and 7.15 µM with CCRF-CEM leukemia.

As to `COc1c(B(O)O)cccc1-c1nc2c(F)cc3n[nH]c(C)c3c2c2c1CCCC2`, the GI50 was 1.33 µM in the experiment on NCI-H23 lung; 0.212 µM with SF-539 CNS; 0.303 µM with HOP-62 NSCLC; 1.48 µM with NCI/ADR-RES ovarian; 1.17 µM in the experiment with SNB-19 CNS; 1.95 µM in the experiment on HT29 colon. Moreover, the GI50 is 1.22 µM with OVCAR-8 ovarian, 1.42 µM in the experiment with DU-145 prostate, 1.48 µM in the experiment with OVCAR-3 ovarian and 0.373 µM in the experiment on CCRF-CEM leukemia. Besides, the TGI with NCI-H23 lung was above 27.8 µM; in the experiment on SF-539 CNS, 2.97 µM; in the experiment on HOP-62 NSCLC, above 50 µM; with NCI/ADR-RES ovarian, above 50 µM; in the experiment on SNB-19 CNS it was above 50 µM; with HT29 colon, above 50 µM. The TGI in the experiment with OVCAR-8 ovarian, in the experiment on DU-145 prostate, in the experiment on OVCAR-3 ovarian and in the experiment on CCRF-CEM leukemia was above 50 µM throughout.

For the compound `O=C(CCN1CCCN(c2cnc3ccccc3n2)CC1)c1csc2ccccc12`, the GI50 with NCI-H23 lung was 20.8 µM; with SF-539 CNS, 18.9 µM; in the experiment on HOP-62 NSCLC, 28.1 µM; with NCI/ADR-RES ovarian it was 21.3 µM; in the experiment on SNB-19 CNS, 36.7 µM; in the experiment with HT29 colon, 13 µM. Moreover, the GI50 with OVCAR-8 ovarian is 21.6 µM; in the experiment on DU-145 prostate, 16.6 µM; in the experiment on OVCAR-3 ovarian, 18.9 µM; with CCRF-CEM leukemia it was 12.5 µM. The TGI in the experiment on NCI-H23 lung was 46.7 µM; in the experiment on SF-539 CNS, 33.2 µM; with HOP-62 NSCLC it was 77.3 µM; with NCI/ADR-RES ovarian, 49.5 µM; in the experiment on SNB-19 CNS, above 100 µM; with HT29 colon it was 28.2 µM. In addition, the TGI came out at 48.4 µM in the experiment with OVCAR-8 ovarian, 32.4 µM in the experiment on DU-145 prostate, 32.9 µM in the experiment with OVCAR-3 ovarian and 63.1 µM in the experiment on CCRF-CEM leukemia.

For the compound `C=CC(=O)N1CCC[C@@H](n2nc(-c3ccc(Oc4ccccc4)cc3)c3c(N)ncnc32)C1`, the GI50 in the experiment with NCI-H23 lung was above 10 µM; in the experiment with SF-539 CNS, above 6.36 µM; in the experiment on HOP-62 NSCLC, above 10 µM; with NCI/ADR-RES ovarian, above 6.08 µM; with SNB-19 CNS it was above 10 µM; in the experiment with HT29 colon, above 7.23 µM. Besides, the GI50 is above 8.16 µM in the experiment with OVCAR-8 ovarian, 3.03 µM in the experiment with DU-145 prostate, above 6.8 µM with OVCAR-3 ovarian and above 10 µM in the experiment with CCRF-CEM leukemia. In addition, the TGI in the experiment on NCI-H23 lung, in the experiment with SF-539 CNS, with HOP-62 NSCLC, with NCI/ADR-RES ovarian, with SNB-19 CNS and with HT29 colon was above 10 µM throughout. Further, the TGI in the experiment on OVCAR-8 ovarian, in the experiment with DU-145 prostate, in the experiment with OVCAR-3 ovarian and in the experiment with CCRF-CEM leukemia was above 10 µM throughout.
